Measured values taken from US4427659A, “Muramyl peptide substituted on a peptide nitrogen and medicaments containing the same” (Agence Nationale de Valorisation de la Recherche (ANVAR), priority 1979, dated 1984).

Assays:
[1] = tested on: bovine serum albumin (BSA); test: Adjuvant character in the aqueous phase: anti-body level by passive hemagglutination after BSA with the substance; type: in vivo; conditions: Swiss mice, SC; for Log2 hemagglutinating titer, Primary response D 28: 0.5 mg BSA with 0.1 mg substance in isotonic saline, before booster; for Log2 hemagglutinating titer, Secondary response D 36: 0.5 mg BSA with 0.1 mg substance, booster 0.1 mg BSA thirty days later, six days after booster
Protocol: Groups of 8 Swiss mice aged two months receive, by sub-cutaneous injection (SC), 0.5 mg of antigen constituted by bovine serum albumin (BSA) with (0.1 mg) or without the substance under test in an isotonic saline solution. This high dose of antigen, because it is situated at the limit of the paralysing dose with respect to the immune response, results, through this fact, in a weak or nul response to the antigen alone in the controls; it constitutes therefore a severe criterion to establish the activity of an adjuvant substance. Thirty days later, the mice receive, by the same route of administration, a booster containing 0.1 mg of the same antigen.
The anti-body level is determined, before and six days after the booster, by passive hemagglutination using sheep's red blood cells treated with formalin and covered with the antigen under study according to the method described by A. A. HIRATA and M. W. BRANDISS (J. Immunol., 100, 641-648, 1968).
The anty-body titer, represented by the maximum serum dilution agglutinating a given amount of sheep's red blood cells reaches a maximum at the 36th day following the first injection and is estblished in the following manner.

[2] = tested on: Ovalbumin; test: Adjuvant character in emulsion (FIA): delayed hypersensitivity and specific anti-bodies to ovalbumin; type: in vivo, Hartley males; conditions: 100 μg where printed, no dose given for the methyl ester; for φ mm induration after 48 h: delayed hypersensitivity to 0.025 mg ovalbumin intradermal, 18 days after immunisation with 1 mg ovalbumin in FIA emulsion; for antibodies Log2 μg/ml: serum 21 days after injection, nitrogen precipitatable by ovalbumin, 1 mg ovalbumin in FIA emulsion
Protocol: The tests were carried out on batches of 6 Hartley males of 350 g. The administration was done by intradermal injection into the plantar pad of each of the rear paws. Ovalbumin (constituting the antigen) in the proportion of 1 mg is prepared in 0.1 ml of an emulsion of saline isotonic solution, in an oily phase constituted by the Freund incomplete adjuvant (FIA).
Eighteen days after this immunisation, possible delayed hypersensitivity reactions (HSR) to the antigen were sought by injecting by the intradermal route 0.025 mg of ovalbumin in the side of the animals, […] The diameter in millimiters of the reaction so-caused was measured.
Twenty one days after the injection, the animals were bled. In the serum collected, the contents of specific anti-bodies of the ovalbumin was measured by precipitation of the antibody-antigen complex in the equivalent zone. The amount of protein nitrogen contained in this precipitate was devaluated by the Folin method. The mean values of the contents of antibodies are indicated in the Table of results by the logarithm to base 2. These values express the amount, in micrograms of nitrogen precipitatable by the antigen, per millimiter of serum.

[3] = tested on: rabbit; conditions: in vivo
Source text: In addition, the eventuality of a pyrogenic effect in the rabbit was sought, by following the protocol of the European Pharmacopoea, Vol. 2, 1971, pages 58-60.

pyrogenic character [3]	Compound	Log2 hemagglutinating titer, Primary response D 28 [1]	Log2 hemagglutinating titer, Secondary response D 36 [1]	φ mm induration after 48 h [2] [mm]	antibodies Log2 μg/ml [2] [Log2 μg/ml]
	CC(=O)N[C@@H]1[C@@H](O[C@H](C)C(=O)N[C@@H](C)C(=O)N[C@H](CCC(=O)O)C(N)=O)[C@H](O)[C@@H](CO)O[C@H]1O [MDP, reference compound]	3.64	8.34 ± 1.34	11.5 ± 2.5	12.31 ± 1.01
absence of a pyrogenic character	N-acetyl-muramyl-N-methyl-L-alanyl-D-glutamine-methyl-ester [MDP-(N--methyl-Ala)--OCH3]		5.11	5 ± 2	10.11 ± 0.6
absence of a pyrogenic character	N-acetyl-muramyl-N-methyl-L-alanyl-D-isoglutamine [MDP-(N--methyl-Ala)]	4.64	9.27 ± 1.19	14 ± 0.8	12.51 ± 0.88
